Test: Relative thermodynamic stability of crystalline anhydrous Forms I and II (competitive slurry experiments)
Type: physicochemical
Experimental: Competitive slurry experiments were conducted to determine the relative stability of anhydrous Form I and II.

kinetic preference of form (at room temperature) | conversion rate from AHI to AHII (in solution, under general processing conditions) | thermodynamic stability (at room temperature) | Compound
kinetically favored | very slow | – | Cn1c(Cn2ccc(C(F)(F)F)c(Oc3cc(Cl)cc(C#N)c3)c2=O)n[nH]c1=O [anhydrous Form I, 3-chloro-5-({1-[(4-methyl-5-oxo-4,5-dihydro-1H-1,2,4-triazol-3-yl)methyl]-2-oxo-4-(trifluoromethyl)-1,2-dihydropyridin-3-yl}oxy)benzonitrile]
– | – | more thermodynamically stable | Cn1c(Cn2ccc(C(F)(F)F)c(Oc3cc(Cl)cc(C#N)c3)c2=O)n[nH]c1=O [anhydrous Form II, 3-chloro-5-({1-[(4-methyl-5-oxo-4,5-dihydro-1H-1,2,4-triazol-3-yl)methyl]-2-oxo-4-(trifluoromethyl)-1,2-dihydropyridin-3-yl}oxy)benzonitrile]
